In patent US7977387B2, “Aminobenzophenone compounds” (Leo Pharma A/S, priority 2003, dated 2011):

What was measured:
[1] = tested on: IL-1β; assay: Inhibition of IL-1β secretion in LPS stimulated peripheral blood mononuclear cells; format: cell-based; conditions: PBMC; LPS stimulated human peripheral blood mononuclear cells, 18 hours, ELISA; read-out: The median inhibition concentration (IC50, nM) of IL-1β
Procedure: (§1) To study the effect of compounds of the present invention in vitro, the inhibition of IL-1β and TNF-α secretion was determined using the following procedure:
(§2) Cytokine production was measured in the media from lipopolysaccharide (LPS) stimulated peripheral blood mononuclear cells. The mononuclear cells were isolated from human peripheral blood by Lymphoprep® (Nycomed, Norway) fractionation and suspended in RPMI 1640 (growth medium) with foetal calf serum (FCS, 2%), at a concentration of 5×10^5 cells/ml. The cells were incubated in 24-well tissue culture plates in 1 ml aliquots. Test compounds were dissolved in dimethylsulfoxide (DMSO, 10 mM) and were diluted with the medium. Compounds were added to the cells for 30 minutes, then LPS ([…] final concentration) was added. The plates were incubated for 18 hours, and the concentration of IL-β and TNF-α in the medium was determined by enzyme-linked immunosorbent assays. The median inhibitory concentrations (IC50) of the compounds were calculated.

[2] = tested on: TNF-α; assay: Inhibition of TNF-α secretion in LPS stimulated peripheral blood mononuclear cells; format: cell-based; conditions: PBMC; LPS stimulated human peripheral blood mononuclear cells, 18 hours, ELISA; read-out: The median inhibition concentration (IC50, nM) of TNF-α
Procedure: as §1, §2

SMILES | IC50 [1] | IC50 [2]
Cc1cc(F)ccc1Nc1ccc(C(=O)c2cc(C(=O)NCCCN3CCOCC3)ccc2C)c(Cl)c1 [Compound 107, 3-[2-Chloro-4-(4-fluoro-2-methylphenylamino)benzoyl]-4-methyl-N-(3-morpholin-4-yl-propyl)benzamide] | 3.2 nM | 3.2 nM
Cc1cc(F)ccc1Nc1ccc(C(=O)c2cc(C(=O)NCc3ccncc3)ccc2C)c(Cl)c1 [Compound 109] | 4 nM | 3.2 nM
Cc1ccc(C(=O)NCCCO)cc1C(=O)c1ccc(Nc2ccccc2N)cc1Cl [Compound 118, 3-[4-(2-Aminophenylamino)-2-chlorobenzoyl]-N-(3-hydroxypropyl)-4-methylbenzamide] | 2.2 nM | 2 nM
COc1ccc(C(=O)NC(C)(CO)CO)cc1C(=O)c1ccc(Nc2c(F)cccc2F)cc1Cl [Compound 180, 3-[2-Chloro-4-(2,6-difluoro-phenylamino)-benzoyl]-N-(2-hydroxy-1-hydroxymethyl-1-methyl-ethyl)-4-methoxy-benzamide] | 2.5 nM | 3.2 nM
Cc1ccc(C(=O)NCCO)cc1C(=O)c1ccc(Nc2ccc(F)cc2)cc1Cl [Compound 190, 3-[2-Chloro-4-(4-fluoro-phenylamino)-benzoyl]-N-(2-hydroxy-ethyl)-4-methyl-benzamide] | 0.6 nM | 0.3 nM
Cc1ccc(C(=O)NCCO)cc1C(=O)c1ccc(Nc2ccccc2)cc1Cl [Compound 191, 3-(2-Chloro-4-phenylamino-benzoyl)-N-(2-hydroxy-ethyl)-4-methyl-benzamide] | 1.1 nM | 0.5 nM
Cc1ccc(C(=O)NCCO)cc1C(=O)c1ccc(Nc2cccc(F)c2)cc1Cl [Compound 193, 3-[2-Chloro-4-(3-fluoro-phenylamino)-benzoyl]-N-(2-hydroxy-ethyl)-4-methyl-benzamide] | 4 nM | 2.5 nM
COc1ccc(C(=O)NCCO)cc1C(=O)c1ccc(Nc2ccc(F)cc2)cc1Cl [Compound 194, 3-[2-Chloro-4-(4-fluoro-phenylamino)-benzoyl]-N-(2-hydroxy-ethyl)-4-methoxy-benzamide] | 0.6 nM | 0.3 nM
COc1ccc(C(=O)NCCO)cc1C(=O)c1ccc(Nc2ccccc2)cc1Cl [Compound 195, 3-(2-Chloro-4-phenylamino-benzoyl)-N-(2-hydroxy-ethyl)-4-methoxy-benzamide] | 2.2 nM | 1 nM
COc1ccc(C(=O)NCCF)cc1C(=O)c1ccc(Nc2ccc(F)cc2)cc1Cl [Compound 197, 3-[2-Chloro-4-(4-fluoro-phenylamino)-benzoyl]-N-(2-fluoro-ethyl)-4-methoxy-benzamide] | 3.2 nM | 1.8 nM
COc1ccc(C(=O)NCCF)cc1C(=O)c1ccc(Nc2ccccc2)cc1Cl [Compound 201, 3-(2-Chloro-4-phenylamino-benzoyl)-N-(2-fluoro-ethyl)-4-methoxy-benzamide] | 7.9 nM | 3.2 nM
COc1ccc(C(=O)NCC(N)=O)cc1C(=O)c1ccc(Nc2ccccc2)cc1Cl [Compound 203, N-Carbamoylmethyl-3-(2-chloro-4-phenylamino-benzoyl)-4-methoxy-benzamide] | 6.3 nM | 3.2 nM
Cc1ccc(NC(=O)CCc2ccco2)cc1C(=O)c1ccc(Nc2ccc(F)cc2F)cc1Cl [Compound 246, N-{3-[2-Chloro-4-(2,4-difluoro-phenylamino)-benzoyl]-4-methyl-phenyl}-3-furan-2-yl-propionamide] |  | 3.2 nM
Cc1ccc(NC(=O)Nc2cccc(C(F)(F)F)c2)cc1C(=O)c1ccc(Nc2ccc(F)cc2F)cc1Cl [Compound 263, 1-{3-[2-Chloro-4-(2,4-difluoro-phenylamino)-benzoyl]-4-methyl-phenyl}-3-(3-trifluoromethyl-phenyl)-urea] |  | 1.6 nM
O=C(c1cc(OCCCO)ccc1F)c1ccc(Nc2ccc(F)cc2F)cc1Cl [Compound 314, [2-Chloro-4-(2,4-difluoro-phenylamino)-phenyl]-[2-fluoro-5-(3-hydroxy-propoxy)-phenyl]-methanone] |  | 2.8 nM

More lines, now with the values ahead:

IC50 [1] | IC50 [2] | SMILES
2 nM | 1 nM | COCCNC(=O)c1ccc(C)c(C(=O)c2ccc(Nc3ccc(F)cc3C)cc2Cl)c1 [Compound 106, 3-[2-Chloro-4-(4-fluoro-2-methyl-phenylamino)benzoyl]-N-(2-methoxyethyl)-4-methylbenzamide]
1.3 nM | 0.4 nM | Cc1cc(F)ccc1Nc1ccc(C(=O)c2cc(C(=O)NCCO)ccc2C)c(Cl)c1 [Compound 119, 3-[2-Chloro-4-(4-fluoro-2-methylphenylamino)benzoyl]-N-(2-hydroxyethyl)-4-methylbenzamide]
2.8 nM | 0.6 nM | CNC(=O)c1ccc(C)c(C(=O)c2ccc(Nc3ccc(Cl)cc3F)cc2Cl)c1 [Compound 121, 3-[2-Chloro-4-(4-chloro-2-fluoro-phenylamino)-benzoyl]-4,N-dimethyl-benzamide]
0.5 nM | 0.2 nM | CCOC(=O)CNC(=O)CNC(=O)c1ccc(C)c(C(=O)c2ccc(Nc3ccc(Cl)cc3F)cc2Cl)c1 [Compound 122, (2-{3-[2-Chloro-4-(4-chloro-2-fluoro-phenylamino)-benzoyl]-4-methyl-benzoylamino}-acetylamino)-acetic acid ethyl ester]
4 nM | 2 nM | Cc1ccc(C(=O)N[C@H]2CC[C@@H](O)CC2)cc1C(=O)c1ccc(Nc2ccc(Cl)cc2F)cc1Cl [Compound 135, 3-[2-Chloro-4-(4-chloro-2-fluoro-phenylamino)-benzoyl]-N-cis-(4-hydroxy-cyclohexyl)-4-methyl-benzamide]
4 nM | 2 nM | Cc1ccc(C(=O)N[C@H]2CC[C@H](O)CC2)cc1C(=O)c1ccc(Nc2ccc(Cl)cc2F)cc1Cl [Compound 136, 3-[2-Chloro-4-(4-chloro-2-fluoro-phenylamino)-benzoyl]-N-trans-(4-hydroxy-cyclohexyl)-4-methyl-benzamide]
2.5 nM | 1.6 nM | COc1ccc(C(=O)NCC(O)CO)cc1C(=O)c1ccc(Nc2ccc(F)cc2F)cc1Cl (stereo not shown) [Compound 143, 3-[2-Chloro-4-(2,4-difluoro-phenylamino)-benzoyl]-N-(2,3-dihydroxy-propyl)-4-methoxy-benzamide]
1 nM | 0.6 nM | COc1ccc(C(=O)NCC(N)=O)cc1C(=O)c1ccc(Nc2ccc(F)cc2F)cc1Cl [Compound 144, N-Carbamoylmethyl-3-[2-chloro-4-(2,4-difluoro-phenylamino)-benzoyl]-4-methoxy-benzamide]
3.2 nM | 2.5 nM | Cc1ccc(C(=O)NCC(F)(F)C(F)(F)F)cc1C(=O)c1ccc(Nc2ccc(F)cc2F)cc1Cl [Compound 154, 3-[2-Chloro-4-(2,4-difluoro-phenylamino)-benzoyl]-4-methyl-N-(2,2,3,3,3-pentafluoro-propyl)-benzamide]
0.6 nM | 0.2 nM | CCOC(=O)CNC(=O)c1ccc(C)c(C(=O)c2ccc(Nc3ccc(F)cc3F)cc2Cl)c1 [Compound 158, {3-[2-Chloro-4-(2,4-difluoro-phenylamino)-benzoyl]-4-methyl-benzoylamino}-acetic acid ethyl ester]
7.9 nM | 1.3 nM | Cc1ccc(C(=O)NCCCCO)cc1C(=O)c1ccc(Nc2ccc(F)cc2F)cc1Cl [Compound 159, 3-[2-Chloro-4-(2,4-difluoro-phenylamino)-benzoyl]-N-(4-hydroxy-butyl)-4-methyl-benzamide]
1.7 nM | 2 nM | COC(=O)CCC(=O)CNC(=O)c1ccc(C)c(C(=O)c2ccc(Nc3ccc(F)cc3F)cc2Cl)c1 [Compound 167, 5-{3-[2-chloro-4-(2,4-difluoro-phenylamino)-benzoyl]-4-methyl-benzoylamino}-4-oxo-pentanoic acid methyl ester]
2.5 nM | 2.5 nM | Cc1ccc(C(=O)NCC(=O)NCCC(N)=O)cc1C(=O)c1ccc(Nc2ccc(F)cc2F)cc1Cl [Compound 168, N-[(2-Carbamoyl-ethylcarbamoyl)-methyl]-3-[2-chloro-4-(2,4-difluoro-phenylamino)-benzoyl]-4-methyl-benzamide]
0.4 nM | 0.4 nM | CCOC(=O)CNC(=O)CNC(=O)c1ccc(C)c(C(=O)c2ccc(Nc3ccc(F)cc3F)cc2Cl)c1 [Compound 169, (2-{3-[2-Chloro-4-(2,4-difluoro-phenylamino)-benzoyl]-4-methyl-benzoylamino}-acetylamino)-acetic acid ethyl ester]
8.9 nM | 2.2 nM | CCOC(=O)CNC(=O)c1ccc(OC)c(C(=O)c2ccc(Nc3c(F)cccc3F)cc2Cl)c1 [Compound 182]
2 nM | 0.7 nM | CCOC(=O)CNC(=O)CNC(=O)c1ccc(OC)c(C(=O)c2ccc(Nc3c(F)cccc3F)cc2Cl)c1 [Compound 183, (2-{3-[2-Chloro-4-(2,6-difluoro-phenylamino)-benzoyl]-4-methoxy-benzoylamino}-acetylamino)-acetic acid ethyl ester]
1.1 nM | 0.3 nM | COCCC(=O)Nc1ccc(C)c(C(=O)c2ccc(Nc3ccc(F)cc3F)cc2Cl)c1 [Compound 241, N-{3-[2-Chloro-4-(2,4-difluoro-phenylamino)-benzoyl]-4-methyl-phenyl}-3-methoxy-propionamide]
